Source: patent US20250098679A1, “HERBICIDAL PYRIDONE DERIVATIVES” (SYNGENTA CROP PROTECTION AG, priority 2021, published 2025)

Experiments:
Assay type in all cases: in vivo
Setaria faberi (SETFA) [1] = assay: Pre-emergence Test, Setaria faberi (SETFA); conditions: 1000 g/ha, evaluated after 13 days
[2] = tested on: Echinochloa crus-galli (ECHCG); assay: Pre-emergence Test, Echinochloa crus-galli (ECHCG); conditions: 1000 g/ha, evaluated after 13 days
Zea mays (ZEAMX) [3] = assay: Pre-emergence Test, Zea mays (ZEAMX); conditions: 1000 g/ha, evaluated after 13 days
[4] = tested on: Ipomoea hederacea (IPOHE); assay: Pre-emergence Test, Ipomoea hederacea (IPOHE); conditions: 1000 g/ha, evaluated after 13 days
[5] = tested on: Amaranthus palmeri (AMAPA); assay: Pre-emergence Test, Amaranthus palmeri (AMAPA); conditions: 1000 g/ha, evaluated after 13 days
[6] = tested on: Amaranthus retoflexus (AMARE); assay: Pre-emergence Test, Amaranthus retoflexus (AMARE); conditions: 1000 g/ha, evaluated after 13 days
Setaria faberi (SETFA) [7] = assay: Post-emergence Test, Setaria faberi (SETFA); design: key to percentage damage caused to the plant, SETFA (five-point scale): 5=81-100%, 4=61-80%, 3=41-60%, 2=21-40%, 1=0-20% damage; conditions: evaluated after 13 days
Summary of the method: (§1)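 Pots sprayed with compound in acetone/water (50:50) with 0.5% Tween 20, at 1000 g/ha unless noted, glasshouse 24/16 °C, 14 h light, 65% humidity. Damage scored 13 days after spraying on a five-point scale (5=81-100% to 1=0-20%).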

[8] = tested on: Echinochloa crus-galli (ECHCG); assay: Post-emergence Test, Echinochloa crus-galli (ECHCG); design: key to percentage damage caused to the plant, ECHCG (five-point scale): 5=81-100%, 4=61-80%, 3=41-60%, 2=21-40%, 1=0-20% damage; conditions: evaluated after 13 days
Summary of the method: as §1

Zea mays (ZEAMX) [9] = assay: Post-emergence Test, Zea mays (ZEAMX); design: key to percentage damage caused to the plant, ZEAMX (five-point scale): 5=81-100%, 4=61-80%, 3=41-60%, 2=21-40%, 1=0-20% damage; conditions: evaluated after 13 days
Summary of the method: as §1

[10] = tested on: Ipomoea hederacea (IPOHE); assay: Post-emergence Test, Ipomoea hederacea (IPOHE); design: key to percentage damage caused to the plant, IPOHE (five-point scale): 5=81-100%, 4=61-80%, 3=41-60%, 2=21-40%, 1=0-20% damage; conditions: evaluated after 13 days
Summary of the method: as §1

[11] = tested on: Amaranthus palmeri (AMAPA); assay: Post-emergence Test, Amaranthus palmeri (AMAPA); design: key: 5=81-100%, 4=61-80%, 3=41-60%, 2=21-40%, 1=0-20% damage; conditions: evaluated after 13 days
Summary of the method: as §1

[12] = tested on: Amaranthus retoflexus (AMARE); assay: Post-emergence Test, Amaranthus retoflexus (AMARE); design: key to percentage damage caused to the plant, AMARE (five-point scale): 5=81-100%, 4=61-80%, 3=41-60%, 2=21-40%, 1=0-20% damage; conditions: evaluated after 13 days
Summary of the method: as §1

SMILES	Pre-emergence Test SETFA, percentage damage caused to the plant (five-point scale) (Setaria faberi (SETFA) [1])	Pre-emergence Test ECHCG, percentage damage caused to the plant (five-point scale) [2]	Pre-emergence Test ZEAMX, percentage damage caused to the plant (five-point scale) (Zea mays (ZEAMX) [3])	Pre-emergence Test IPOHE, percentage damage caused to the plant (five-point scale) [4]	Pre-emergence Test AMAPA, percentage damage caused to the plant (five-point scale) [5]	Pre-emergence Test AMARE, percentage damage caused to the plant (five-point scale) [6]	percentage damage caused to the plant, SETFA (five-point scale) (Setaria faberi (SETFA) [7]; 250 g/Ha)	percentage damage caused to the plant, SETFA (five-point scale) (Setaria faberi (SETFA) [7]; 1000 g/ha)	percentage damage caused to the plant, ECHCG (five-point scale) ([8]; 250 g/Ha)	percentage damage caused to the plant, ECHCG (five-point scale) ([8]; 1000 g/ha)	percentage damage caused to the plant, ZEAMX (five-point scale) (Zea mays (ZEAMX) [9]; 250 g/Ha)	percentage damage caused to the plant, ZEAMX (five-point scale) (Zea mays (ZEAMX) [9]; 1000 g/ha)	percentage damage caused to the plant, IPOHE (five-point scale) ([10]; 250 g/Ha)	percentage damage caused to the plant, IPOHE (five-point scale) ([10]; 1000 g/ha)	percentage damage caused to the plant, AMAPA (five-point scale) ([11]; 250 g/Ha)	percentage damage caused to the plant, AMAPA (five-point scale) ([11]; 1000 g/ha)	percentage damage caused to the plant, AMARE (five-point scale) ([12]; 250 g/Ha)	percentage damage caused to the plant, AMARE (five-point scale) ([12]; 1000 g/ha)
CCn1c(Cn2cc(C)cn2)cc(=O)c(C(=O)O)c1-c1ccc(Cl)c(Cl)c1 [Compound 91, 2-(3,4-dichlorophenyl)-1-ethyl-6-[(4-methylpyrazol-1-yl)methyl]-4-oxo-pyridine-3-carboxylic acid]	0	0	0	0	1 (1=0-20%)	1 (1=0-20%)	0	1 (1=0-20%)	3 (3=41-60%)	1 (1=0-20%)	1 (1=0-20%)	1 (1=0-20%)	0	3 (3=41-60%)	1 (1=0-20%)	4 (4=61-80%)	1 (1=0-20%)	2 (2=21-40%)
CCn1c(Cn2ccc(C(F)(F)F)n2)cc(=O)c(C(=O)O)c1-c1ccc(F)c(Cl)c1 [Compound 32, 2-(3-chloro-4-fluoro-phenyl)-1-ethyl-4-oxo-6-[[3-(trifluoromethyl)pyrazol-1-yl]methyl]pyridine-3-carboxylic acid]	5 (5=81-100%)	5 (5=81-100%)	4 (4=61-80%)	3 (3=41-60%)	4 (4=61-80%)	3 (3=41-60%)	4 (4=61-80%)	4 (4=61-80%)	3 (3=41-60%)	4 (4=61-80%)	1 (1=0-20%)	3 (3=41-60%)	4 (4=61-80%)	2 (2=21-40%)	2 (2=21-40%)	2 (2=21-40%)	1 (1=0-20%)	4 (4=61-80%)
